Values quoted from earlier work, collected in paper PMC4559881 (Molecular Neurodegeneration, 2015).
Like-named read-outs stand apart in the source and are kept apart here.

Columns and labels:
[1] = cited from earlier work
[2] = test system: CSF Aβ; design: method as in PMID 22090477; conditions: dogs, oral dose of 5 mg/kg; cited from earlier work
[3] = test system: brain Aβ; design: method as in PMID 22090477; conditions: PDAPP mice, doses ≥ 30 mg/kg p.o.; cited from earlier work
[4] = test system: CSF Aβ; design: method as in PMID 22090477; conditions: healthy volunteers, cited from earlier work
[5] = human, in vivo; cited from earlier work
[6] = test system: deposited Aβ; design: method as in PMID 25164658; conditions: APP London mice, 4 months of dosing, 30 mg/kg; cited from earlier work

## CC1(C#Cc2cnc3c(c2)[C@]2(COC(N)=N2)c2cc(-c4cccnc4F)ccc2O3)COC1 [AMG-8718]
[1]; high doses
  toxicity finding in rats: retinal toxicity

## C[C@@]1(c2cc(-c3cncnc3)c(F)cc2F)CCSC(N)=N1 [LY2811376]
[1]
  toxicity finding in rats: neuronal lipofuscinosis and degeneration
[2]
  reduction of CSF Aβ: approximately 70%
[3]
  reduction of brain Aβ: > 60%
[4]; oral dose 30 mg
  change of CSF Aβ: -20%
[4]; oral dose 90 mg
  change of CSF Aβ: -54%

## NC1=N[C@@]2(c3cc(NC(=O)c4ccc(F)cn4)ccc3F)COC[C@H]2CS1 [LY2886721]
[5]
  liver finding in AD patients: elevation of liver enzymes

## C[C@]1(c2cc(NC(=O)c3ccc(C#N)cn3)ccc2F)N=C(N)OCC1(F)F [RO5508887]
[6]
  reduction of total deposited Aβ40: 28%
  reduction of total deposited Aβ42: 45%
